Test results: paper PMC11523249, “Expanding the antiprotozoal activity and the mechanism of action of n-butyl and iso-butyl ester of quinoxaline-1,4-di-N-oxide derivatives against Giardia lamblia, Trichomonas vaginalis, and Entamoeba histolytica. An in vitro and in silico approach” (Journal of Enzyme Inhibition and Medicinal Chemistry, 2024)
Read-outs that look alike come from different tables or passages of the source.

Legend:
[1] = system: E. histolytica strain HM1-IMSS; assay: In vitro susceptibility assay, E. histolytica trophozoites; format: cell-based, Entamoeba histolytica
Description: (§1) G. lamblia WB strain, T. vaginalis GT3 strain, and E. histolytica strain HM1-IMSS were used in all experiments, all parasitic strains were obtained from the Unidad de Investigación Médica en Enfermedades Infecciosas y Parasitarias, Hospital de Pediatría, Instituto Mexicano del Seguro Social. In vitro susceptibility assays to determine IC50 values were performed using a method previously described. For this, 4 × 10^4 G. lamblia; 6 × 10^3 E. histolytica, or 4 × 10^4 T. vaginalis trophozoites were incubated for 48 h at 37 °C with different concentrations of quinoxaline derivatives T-137 to T-170 (0.5 ng/mL to 10 μg/mL) using dimethyl sulfoxide (DMSO) (0.05%) as solvent. Metronidazole and albendazole were used as positive controls, and parasites in the medium without drugs containing DMSO (0.05%) were included as negative controls. At the end of the incubation period, trophozoites were washed and subcultured for another 48 h in a fresh medium without drugs. Then, trophozoites were counted with a haemocytometer and the IC50 was calculated by Probit analysis. Experiments were carried out in triplicate and repeated at least twice.

T. vaginalis GT3 strain = assay: In vitro susceptibility assay, T. vaginalis trophozoites; format: cell-based, Trichomonas vaginalis
Description: as §1

G. lamblia WB strain = assay: In vitro susceptibility assay, G. lamblia trophozoites; format: cell-based, Giardia lamblia
Description: as §1

[2] = system: murine macrophage cell line J774.2; assay: Cytotoxic evaluation, MTT colorimetric assay; format: cell-based; details: murine macrophages J774.2, read-out: Cytotoxicity (Macrophages J774.2) (CC50)
Description: The murine macrophage cell line J774.2 was maintained in culture flasks with RPMI 1640 medium supplemented with 10% FBS, and 100 U/mL antibiotic-antifungal mixture (Gibco). Cells were incubated at 37 °C with 5% CO2 and humidity. Murine macrophage cell line J774.2 is maintained at Laboratorio de Estudios Epidemiológicos, Clínicos, Diseños Experimentales e Investigación, Facultad de Ciencias Químicas, Universidad Autónoma “Benito Juárez” de Oaxaca. Macrophages were washed and viability was assessed by the MTT colorimetric assay. In a 96-well microplate, 1 × 10^5 macrophages were added per well and a dose-response assay was performed. Compounds were evaluated using serial dilutions to determine half-maximal cytotoxic concentration (CC50) values in triplicate considering 0.2% DMSO as negative control.

[3] = target: T1, recombinant E. histolytica thioredoxin reductase (EhTRXR) (Entamoeba histolytica, UniProt C4LW95); assay: Inhibition of EhTrxR DTNB reductase activity; format: biochemical; details: for inhibition at 100 µM: pH 7, read-out: EhTrxR inhibitory effect (disulphide reductase activity)
T1 construct: His-tag (pET28a) (N); made in house; host or cells: E. coli BL21 (DE3)
T1 sequence (C4LW95 1-314): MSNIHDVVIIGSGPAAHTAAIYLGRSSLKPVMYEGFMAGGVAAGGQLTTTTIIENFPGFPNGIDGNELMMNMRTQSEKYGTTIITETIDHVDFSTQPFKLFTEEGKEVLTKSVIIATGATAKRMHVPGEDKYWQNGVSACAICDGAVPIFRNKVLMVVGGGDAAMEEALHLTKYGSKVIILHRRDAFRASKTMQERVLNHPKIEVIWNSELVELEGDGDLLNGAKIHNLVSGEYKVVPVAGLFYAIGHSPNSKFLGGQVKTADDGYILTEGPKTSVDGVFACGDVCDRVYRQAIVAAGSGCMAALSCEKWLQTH
Description: Recombinant E. histolytica thioredoxin reductase (EhTRXR) was expressed in E. coli BL21 (DE3) as His-tag (N-terminal) recombinant proteins using pET28a vector, and it was purified using IMAC as previously described. 5,5′-Dithiobis(2-nitrobenzoic acid) (DTNB) reductase activity was measured by monitoring the production of thionitrobenzoate at 405 nm in a reaction mixture comprising 50 mM potassium phosphate, pH 7.0, 2 mM EDTA, 300 µM NADPH, 5 mM DTNB, and 0.1 µM EhTRXR. Activity was calculated using the molar extinction coefficient at 405 nm of 13.6 mM^−1cm^− 1 and considering that 1 mol of NADPH yields 2 mol of thionitrobenzoate. The enzyme assays were performed at 30 °C, in a final volume of 50 μL, and using a Multiskan Ascent one-channel vertical light path filter photometer (Thermo Electron Co.). All results represent the arithmetic mean of at three independent experiments.

[4] = Entamoeba histolytica, 48 h, read-out: E. histolytica (IC50 nM), trophozoites, 48 h at 37 °C, subcultured 48 h, Probit analysis
[5] = Trichomonas vaginalis, GT3, 48 h, read-out: T. vaginalis (IC50 nM), trophozoites, 48 h at 37 °C, subcultured 48 h, Probit analysis
[6] = Giardia duodenalis, 48 h, read-out: G. lamblia (IC50 nM), trophozoites, 48 h at 37 °C, subcultured 48 h, Probit analysis
[7] = read-out: E. histolytica (IC50 nM), trophozoites, 48 h at 37 °C, subcultured 48 h, Probit analysis
[8] = read-out: T. vaginalis (IC50 nM), trophozoites, 48 h at 37 °C, subcultured 48 h, Probit analysis

CCCSc1ccc2nc(NC(=O)OC)[nH]c2c1 [Albendazole, reference compound]
IC50 [1, 4]: 44000 ± 2470 nM | IC50 (T. vaginalis GT3 strain; [5]): 1830 ± 86.7 nM | IC50 (G. lamblia WB strain; [6]): 49 ± 5.65 nM

CCCCOC(=O)c1ccc2c(c1)[n+]([O-])c(C(C)=O)c(C)[n+]2[O-] [Compound T-137]
IC50 [1, 4]: 83.3 ± 1.57 nM | IC50 (T. vaginalis GT3 strain; [5]): 258 ± 6.29 nM | IC50 (G. lamblia WB strain; [6]): 77 ± 9.43 nM | CC50 [2]: 58400 ± 1120 nM

CCCCOC(=O)c1ccc2c(c1)[n+]([O-])c(C(=O)OC)c(C)[n+]2[O-] [Compound T-138]
IC50 [1, 4]: ~40 nM | IC50 [1, 7]: 40.4 ± 4.49 nM | IC50 (T. vaginalis GT3 strain; [5]): 88 nM | IC50 (T. vaginalis GT3 strain; [8]): 88.3 ± 12 nM | IC50 (G. lamblia WB strain; [6]): 48.5 ± 1.5 nM | CC50 [2]: 46200 ± 3260 nM

CCCCOC(=O)c1ccc2c(c1)[n+]([O-])c(C(=O)OCC)c(C)[n+]2[O-] [Compound T-139]
IC50 [1, 4]: ~30 nM | IC50 [1, 7]: 34.5 ± 7.18 nM | IC50 (T. vaginalis GT3 strain; [5]): ~100 nM | IC50 (T. vaginalis GT3 strain; [8]): 103 ± 2.87 nM | IC50 (G. lamblia WB strain; [6]): 47.4 ± 5.75 nM | CC50 [2]: > 200000 nM

CCCCOC(=O)c1ccc2c(c1)[n+]([O-])c(C(=O)OC(C)(C)C)c(C)[n+]2[O-] [Compound T-140]
IC50 [1, 4]: ~30 nM | IC50 [1, 7]: 29.2 ± 2.66 nM | IC50 (T. vaginalis GT3 strain; [5]): ~100 nM | IC50 (T. vaginalis GT3 strain; [8]): 101 ± 3.99 nM | inhibition at 100 µM [3]: 50 to 75% | IC50 (G. lamblia WB strain; [6]): 49.2 ± 2.66 nM | CC50 [2]: > 200000 nM

CCCCOC(=O)c1ccc2c(c1)[n+]([O-])c(C(=O)OCc1ccccc1)c(C)[n+]2[O-] [Compound T-141]
IC50 [1, 4]: ~40 nM | IC50 [1, 7]: 40.2 ± 2.44 nM | IC50 (T. vaginalis GT3 strain; [5]): 166 ± 6.1 nM | IC50 (G. lamblia WB strain; [6]): 70.7 ± 1.22 nM | CC50 [2]: > 200000 nM

CCCCOC(=O)c1ccc2c(c1)[n+]([O-])c(C(=O)c1ccccc1)c(C)[n+]2[O-] [Compound T-142]
Selectivity index, E. histolytica versus macrophages ([1]; CC50 J774.2 / IC50 E. histolytica): 1918 fold | IC50 [1, 4]: 9.2 ± 1.32 nM | IC50 (T. vaginalis GT3 strain; [5]): < 90 nM | IC50 (T. vaginalis GT3 strain; [8]): 81.5 ± 3.95 nM | inhibition at 100 µM [3]: 50 to 75% | IC50 (G. lamblia WB strain; [6]): 36.8 ± 0.66 nM | CC50 [2]: 17600 ± 2140 nM

CCCCOC(=O)c1ccc2c(c1)[n+]([O-])c(C(=O)Nc1ccc(C)cc1C)c(C)[n+]2[O-] [Compound T-144]
IC50 [1, 4]: 47.3 ± 4.73 nM | IC50 (T. vaginalis GT3 strain; [5]): 118 ± 4.73 nM | IC50 (G. lamblia WB strain; [6]): 46.1 ± 1.18 nM

CCCCOC(=O)c1ccc2c(c1)[n+]([O-])c(C(C)=O)c(C(F)(F)F)[n+]2[O-] [Compound T-145]
IC50 [1, 4]: 57.8 ± 6.72 nM | IC50 (T. vaginalis GT3 strain; [5]): 108 ± 16.1 nM | IC50 ([3]; DTNB reductase activity, 30 °C, pH 7.0): 16000 nM | inhibition at 100 µM [3]: > 75% | IC50 (G. lamblia WB strain; [6]): 40.3 ± 6.72 nM | CC50 [2]: > 200000 nM

CCCCOC(=O)c1ccc2c(c1)[n+]([O-])c(C(=O)c1ccccc1)c(C(F)(F)F)[n+]2[O-] [Compound T-148]
IC50 [1, 4]: 16.1 ± 3.46 nM | IC50 (T. vaginalis GT3 strain; [5]): < 90 nM | IC50 (T. vaginalis GT3 strain; [8]): 82.9 ± 8.06 nM | inhibition at 100 µM [3]: 50 to 75% | IC50 (G. lamblia WB strain; [6]): 39.2 ± 3.46 nM | CC50 [2]: 48400 ± 1650 nM

CCCCOC(=O)c1ccc2c(c1)[n+]([O-])c(C(=O)c1cccs1)c(C(F)(F)F)[n+]2[O-] [Compound T-149]
IC50 [1, 4]: 18.2 ± 2.27 nM | IC50 (T. vaginalis GT3 strain; [5]): 97.7 ± 9.09 nM | inhibition at 100 µM [3]: 50 to 75% | IC50 (G. lamblia WB strain; [6]): < 30 nM | IC50 (G. lamblia WB strain; read-out: G. lamblia (IC50 nM), trophozoites, 48 h at 37 °C, subcultured 48 h, Probit analysis): 27.3 ± 2.27 nM

CCCCOC(=O)c1ccc2c(c1)[n+]([O-])c(C(=O)c1ccc3ccccc3c1)c(C(F)(F)F)[n+]2[O-] [Compound T-150]
IC50 [1, 4]: 36.1 ± 1.14 nM | IC50 (T. vaginalis GT3 strain; [5]): 124 ± 2.27 nM | IC50 (G. lamblia WB strain; [6]): 51.6 ± 2.27 nM | CC50 [2]: > 200000 nM
